The values below come from PMC8048568, “Synthesis of σ Receptor Ligands with a Spirocyclic System Connected with a Tetrahydroisoquinoline Moiety via Different Linkers” (Chemmedchem, 2021).

Like-named read-outs stand apart in the source and are kept apart here.

For experiment [1], the target named is σ1 receptor (Cavia porcellus, UniProt Q60492). As to the kind of experiment: σ1 receptor competitive radioligand binding assay with [3H]-(+)-pentazocine. The conditions noted are these: for Ki: K i [nM]±SEM σ1, [3H]-(+)-pentazocine, guinea pig brain homogenate, mean of 3 experiments; for inhibition at 1 µM: read-out: inhibition of the radioligand, σ1.
For another experiment, the target named is T1, σ2 receptor (Rattus norvegicus, UniProt Q5U3Y7).
T1 sequence (Q5U3Y7 1-176): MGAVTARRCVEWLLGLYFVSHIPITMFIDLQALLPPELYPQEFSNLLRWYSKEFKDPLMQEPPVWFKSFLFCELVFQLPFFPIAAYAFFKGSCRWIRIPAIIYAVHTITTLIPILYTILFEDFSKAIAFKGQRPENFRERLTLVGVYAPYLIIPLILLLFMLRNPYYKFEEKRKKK
Put plainly: σ2 receptor competitive radioligand binding assay with [3H]DTG, σ1 masked with (+)-pentazocine. The following applies: for inhibition at 1 µM: read-out: inhibition of the radioligand, σ2, 1 μM of the test compound; for inhibition at 1 µM / inhibition of the radioligand, σ2: [3H]DTG, rat liver; for Ki: K i [nM]±SEM σ2, [3H]DTG, rat liver homogenate, mean of 3 experiments; for inhibition of the radioligand, σ2: 1 μM of the test compound, 1 µM.

Experiment [2] concerns the target σ1 receptor. The following applies: cited from earlier work.

σ1 receptor (Cavia porcellus, UniProt Q60492), sequence (Q60492 whole entry): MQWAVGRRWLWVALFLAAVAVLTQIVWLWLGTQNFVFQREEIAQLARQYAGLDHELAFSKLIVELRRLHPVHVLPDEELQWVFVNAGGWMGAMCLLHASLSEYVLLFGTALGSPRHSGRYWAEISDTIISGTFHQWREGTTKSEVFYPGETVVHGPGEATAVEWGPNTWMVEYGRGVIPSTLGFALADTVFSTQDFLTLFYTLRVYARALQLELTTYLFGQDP

Broadly, the inhibition is the drop in the measured response relative to a control, in per cent. For `COc1cc2c(cc1OC)CN(C(=O)CN1CCC3(CC1)OC(OC)Cc1ccccc13)CC2` (centres unmarked) [Compound 21, 1‐(6,7‐Dimethoxy‐3,4‐dihydroisoquinolin‐2(1H)‐yl)‐2‐{3‐methoxy‐3,4‐dihydrospiro[[2]benzopyran‐1,4′‐piperidin]‐1′‐yl}ethan‐1‐one], the Ki at σ1 receptor [1] was found to be 319 nM. Moreover, the inhibition at 1 µM at σ2 receptor was 19%. With `COc1cc2c(cc1OC)CN(C(=O)CN1CCC3(CC1)OC(OC)c1ccccc13)CC2` (centres unmarked) [Compound 23, 1‐(6,7‐Dimethoxy‐3,4‐dihydroisoquinolin‐2(1H)‐yl)‐2‐{3‐methoxy‐3H‐spiro[[2]benzofuran‐1,4′‐piperidin]‐1′‐yl}ethan‐1‐one], the inhibition at 1 µM on σ1 receptor [1] and at σ2 receptor was 0% throughout. As to `COc1cc2c(cc1OC)CN(CC(=O)N1CCC3(CC1)OC(OC)Cc1ccccc13)CC2` (centres unmarked) [Compound 25, 2‐(6,7‐Dimethoxy‐3,4‐dihydroisoquinolin‐2(1H)‐yl)‐1‐(3‐methoxy‐3,4‐dihydrospiro[[2]benzopyran‐1,4′‐piperidin]‐1′‐yl)ethan‐1‐one], the Ki on σ1 receptor [1] turned out to be 518 nM; on σ2 receptor, 534 nM. In the case of `COc1cc2c(cc1OC)CN(CC(=O)N1CCC3(CC1)OC(OC)c1ccccc13)CC2` (centres unmarked) [Compound 28, 2‐(6,7‐Dimethoxy‐3,4‐dihydroisoquinolin‐2(1H)‐yl)‐1‐{3‐methoxy‐3H‐spiro[[2]benzofuran‐1,4′‐piperidin]‐1′‐yl}ethan‐1‐one], the inhibition at 1 µM at σ1 receptor [1] came to 19%. The compound also had a Ki at σ2 receptor of 3400 nM. On to `COc1cc2c(cc1OC)CN(CCN1CCC3(CC1)OC(OC)Cc1ccccc13)CC2` (centres unmarked) [Compound 30, 1′‐[2‐(6,7‐Dimethoxy‐3,4‐dihydroisoquinolin‐2(1H)‐yl)ethyl]‐3‐methoxy‐3,4‐dihydrospiro[[2]benzopyran‐1,4′‐piperidine]], for which the Ki came out at 608 nM at σ1 receptor [1] and 348 nM on σ2 receptor. As for `COc1cccc2c1CCCC2CCCN1CCN(C2CCCCC2)CC1` (centres unmarked) [PB28], the Ki at σ1 receptor [2] (read-out: K i σ1 subtype) is […]. `COc1cc2c(cc1OC)CN(C(=O)CNC1CCC3(CC1)OC(OC)Cc1ccccc13)CC2` (stereo not drawn) [cis‐22, cis‐1‐(6,7‐Dimethoxy‐3,4‐dihydroisoquinolin‐2(1H)‐yl)‐2‐[N‐(3‐methoxy‐3,4‐dihydrospiro[[2]benzopyran‐1,1′‐cyclohexan]‐4′‐yl)amino]ethan‐1‐one]: at σ1 receptor [1], the Ki is 740 nM. For the same compound, the inhibition at 1 µM on σ2 receptor was determined as 11%.

Turning to `COc1cc2c(cc1OC)CN(C(=O)CNC1CCC3(CC1)OC(OC)c1ccccc13)CC2` (stereo not drawn) [cis‐24, cis‐1‐(6,7‐Dimethoxy‐3,4‐dihydroisoquinolin‐2(1H)‐yl)‐2‐[N‐(3‐methoxy‐3H‐spiro[[2]benzofuran‐1,1′‐cyclohexan]‐4′‐yl)amino]ethan‐1‐one], the Ki on σ1 receptor [1] amounted to 1600 nM. Further, the “inhibition of the radioligand, σ2” value on σ2 receptor is recorded as 9%. Turning to `COc1cc2c(cc1OC)CN(CC(=O)NC1CCC3(CC1)OC(OC)Cc1ccccc13)CC2` (stereo not drawn) [cis‐26, cis‐2‐(6,7‐Dimethoxy‐3,4‐dihydroisoquinolin‐2(1H)‐yl)‐N‐(3‐methoxy‐3,4‐dihydrospiro[[2]benzopyran‐1,1′‐cyclohexan]‐4′‐yl)acetamide], the Ki on σ1 receptor [1] was determined as 1000 nM; at σ2 receptor it was 371 nM. The like results for `COc1cc2c(cc1OC)CN(CCCC(=O)NC1CCC3(CC1)OC(OC)Cc1ccccc13)CC2` (stereo not drawn) [cis‐27, cis‐4‐(6,7‐Dimethoxy‐3,4‐dihydroisoquinolin‐2(1H)‐yl)‐N‐(3‐methoxy‐3,4‐dihydrospiro[[2]benzopyran‐1,1′‐cyclohexan]‐4′‐yl)butanamide] were, in that order, 712 nM and 2100 nM.

Compound `COc1cc2c(cc1OC)CN(CC(=O)NC1CCC3(CC1)OC(OC)c1ccccc13)CC2` (stereo not drawn) [cis‐29, cis‐2‐(6,7‐Dimethoxy‐3,4‐dihydroisoquinolin‐2(1H)‐yl)‐N‐(3‐methoxy‐3H‐spiro[[2]benzofuran‐1,1′‐cyclohexan]‐4′‐yl)acetamide] came in with a Ki at σ1 receptor [1] of 129 nM. Besides, the inhibition at 1 µM at σ2 receptor amounted to 0%.

With `COc1cc2c(cc1OC)CN(CCNC1CCC3(CC1)OC(OC)Cc1ccccc13)CC2` (stereo not drawn) [cis‐31, cis‐N‐[2‐(6,7‐Dimethoxy‐3,4‐dihydroisoquinolin‐2(1H)‐yl)ethyl]‐3‐methoxy‐3,4‐dihydrospiro[[2]benzopyran‐1,1′‐cyclohexan]‐4′‐amine], the results for the Ki on σ1 receptor [1] and at σ2 receptor were 251 nM and 200 nM, respectively. For `Fc1ccc(-n2cc(CCCCN3CCC4(CC3)OCc3ccccc34)c3ccccc32)cc1` [siramesine], the Ki at σ1 receptor [2] (read-out: K i σ1 receptor) is 17 nM. `COc1cc2c(cc1OC)CN(C(=O)CNC1CCC3(CC1)OC(OC)c1ccccc13)CC2` (stereo not drawn) [trans‐24, trans‐1‐(6,7‐Dimethoxy‐3,4‐dihydroisoquinolin‐2(1H)‐yl)‐2‐[N‐(3‐methoxy‐3H‐spiro[[2]benzofuran‐1,1′‐cyclohexan]‐4′‐yl)amino]ethan‐1‐one]: the inhibition at 1 µM on σ1 receptor [1] was found to be 15%. In addition, on σ2 receptor, the “inhibition of the radioligand, σ2” value is recorded as 0%. For `COc1cc2c(cc1OC)CN(CC(=O)NC1CCC3(CC1)OC(OC)Cc1ccccc13)CC2` (stereo not drawn) [trans‐26, trans‐2‐(6,7‐Dimethoxy‐3,4‐dihydroisoquinolin‐2(1H)‐yl)‐N‐(3‐methoxy‐3,4‐dihydrospiro[[2]benzopyran‐1,1′‐cyclohexan]‐4′‐yl)acetamide], the inhibition at 1 µM at σ1 receptor [1] amounted to 7%; on σ2 receptor, 4%. `COc1cc2c(cc1OC)CN(CC(=O)NC1CCC3(CC1)OC(OC)c1ccccc13)CC2` (stereo not drawn) [trans‐29, trans‐2‐(6,7‐Dimethoxy‐3,4‐dihydroisoquinolin‐2(1H)‐yl)‐N‐(3‐methoxy‐3H‐spiro[[2]benzofuran‐1,1′‐cyclohexan]‐4′‐yl)acetamide]: the Ki at σ1 receptor [1] was 1300 nM; at σ2 receptor, 1900 nM. The like results for `COc1cc2c(cc1OC)CN(CCNC1CCC3(CC1)OC(OC)Cc1ccccc13)CC2` (stereo not drawn) [trans‐31, trans‐N‐[2‐(6,7‐Dimethoxy‐3,4‐dihydroisoquinolin‐2(1H)‐yl)ethyl]‐3‐methoxy‐3,4‐dihydrospiro[[2]benzopyran‐1,1′‐cyclohexan]‐4′‐amine] were, in that order, 1400 nM and 499 nM.
